Test results published in US11980188B2, “Spiro cyclohexanedione derivates as herbicides” (SYNGENTA PARTICIPATIONS AG, priority 2018, dated 2024).

How the values were obtained:
[1] = test system: weed species ALOMY, AVEFA & LOLPE; assay: Post-emergence comparison with comparator C1, overall conclusion; format: in vivo; conditions: 63 and 16 g/ha, Table B2
Experimental: (§1) Seeds of a variety of test species are sown in standard soil in pots (Lolium perenne (LOLPE), Setaria faberi (SETFA), Alopecurus myosuroides (ALOMY), Echinochloa crus-galli (ECHCG), Avena fatua (AVEFA)). After cultivation for one day (pre-emergence) or after 8 days cultivation (post-emergence) under controlled conditions in a glasshouse (at 24/16° C., day/night; 14 hours light; 65% humidity), the plants are sprayed with an aqueous spray solution derived from the formulation of the technical active ingredient in acetone/water (50:50) solution containing 0.5% Tween 20 (polyoxyethelyene sorbitan monolaurate, CAS RN 9005-64-5). Compounds are applied at […]. The test plants are then grown in a glasshouse under controlled conditions in a glasshouse (at 24/16° C., day/night; 14 hours light; 65% humidity) and watered twice daily. After 13 days for pre and post-emergence, the test is evaluated for the percentage damage caused to the plant. The biological activities are shown in the following table on a five point scale (5=80-100%; 4=60-79%; 3=40-59%; 2=20-39%; 1=0-19%).
(§2) Using procedures outlines above, weed species ALOMY, AVEFA & LOLPE are treated post-emergence with compound A4 of the present invention or comparator compound C1 (Compound T-26 from WO2008/110308) at the application rates indicated. The test is evaluated for the percentage damage caused to the plant.

[2] = test system: Echinochloa crus-galli (ECHCG); assay: Glasshouse herbicide test, pre- and post-emergence, percentage damage; format: in vivo; conditions: 250 g/h, evaluated after 13 days, percentage damage on five point scale; for ECHCG POST: post-emergence; for ECHCG PRE: pre-emergence
Outline: (§3)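 Potted plants in standard soil; pre-emergence spray after 1 d of cultivation, post-emergence after 8 d. Dose 250 g/h from an acetone/water (50:50), 0.5% Tween 20 formulation. % damage at 13 d, scored 1–5.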

[3] = test system: Lolium perenne (LOLPE); assay: as above; format: in vivo; conditions: 250 g/h, evaluated after 13 days, percentage damage on five point scale; for LOLPE POST: post-emergence; for LOLPE PRE: pre-emergence
Outline: as §3

[4] = test system: Alopecurus myosuroides (ALOMY); assay: as above; format: in vivo; conditions: 250 g/h, evaluated after 13 days, percentage damage on five point scale; for ALOMY POST: post-emergence; for ALOMY PRE: pre-emergence
Outline: as §3

[5] = test system: Avena fatua (AVEFA); assay: as above; format: in vivo; conditions: 250 g/h, evaluated after 13 days, percentage damage on five point scale; for AVEFA POST: post-emergence; for AVEFA PRE: pre-emergence
Outline: as §3

[6] = test system: Setaria faberi (SETFA); assay: as above; format: in vivo; conditions: 250 g/h, evaluated after 13 days, percentage damage on five point scale; for SETFA POST: post-emergence; for SETFA PRE: pre-emergence
Outline: as §3

[7] = test system: ALOMY; assay: Post-emergence comparison with comparator C1 at indicated application rates; format: in vivo, Alopecurus myosuroides
Experimental: as §1, §2

[8] = test system: AVEFA; assay: as above; format: in vivo, Avena fatua
Experimental: as §1, §2

[9] = test system: LOLPE; assay: as above; format: in vivo, Lolium perenne
Experimental: as §1, §2

| Compound | weed control vis-à-vis prior art compound C1 [1] | ECHCG POST [2] | ECHCG PRE [2] | LOLPE POST [3] | LOLPE PRE [3] | ALOMY POST [4] | ALOMY PRE [4] | AVEFA POST [5] | AVEFA PRE [5] | SETFA POST [6] | SETFA PRE [6] | ALOMY percentage damage ([7]; rate 16 g/ha) [%] | ALOMY percentage damage ([7]; rate 63 g/ha) [%] | AVEFA percentage damage ([8]; rate 16 g/ha) [%] | AVEFA percentage damage ([8]; rate 63 g/ha) [%] | LOLPE percentage damage ([9]; rate 16 g/ha) [%] | LOLPE percentage damage ([9]; rate 63 g/ha) [%] |
| --- | --- | --- | --- | --- | --- | --- | --- | --- | --- | --- | --- | --- | --- | --- | --- | --- | --- |
| COc1cc(-c2ccc(F)cc2)cc(OC)c1C1C(=O)CC2(CCN(OC)CC2)CC1=O [Compound A7] | improved weed control | 5 (5=80-100%) | 5 (5=80-100%) | 5 (5=80-100%) | 5 (5=80-100%) | 5 (5=80-100%) | 5 (5=80-100%) | 5 (5=80-100%) | 5 (5=80-100%) | 5 (5=80-100%) | 5 (5=80-100%) | 80 | 100 | 100 | 100 | 90 | 100 |
| Cc1cc(C)c(C2C(=O)CC3(CCOCC3)CC2=O)c(C)c1 [Compound C1, reference compound] | – | – | – | – | – | – | – | – | – | – | – | 20 | 80 | 20 | 70 | 30 | 60 |
| Cc1cc(-c2ncc(F)cn2)cc(C)c1C1C(=O)CC2(CCN(C(=O)NC(C)(C)C)CC2)CC1=O [Compound A36] | – | – | 5 (5=80-100%) | 5 (5=80-100%) | 5 (5=80-100%) | 5 (5=80-100%) | 5 (5=80-100%) | 5 (5=80-100%) | 5 (5=80-100%) | 5 (5=80-100%) | 5 (5=80-100%) | – | – | – | – | – | – |
| COc1cc(-c2ncc(F)cn2)cc(OC)c1C1C(=O)CC2(CCN(C(C)=O)CC2)CC1=O [Compound A15] | – | 5 (5=80-100%) | 5 (5=80-100%) | 5 (5=80-100%) | 5 (5=80-100%) | 5 (5=80-100%) | 5 (5=80-100%) | 5 (5=80-100%) | 5 (5=80-100%) | 5 (5=80-100%) | 5 (5=80-100%) | – | – | – | – | – | – |
| CC(=O)N1CCC2(CC1)CC(=O)C(c1c(C)cc(-c3ccc(F)cn3)cc1C)C(=O)C2 [Compound A46] | – | 5 (5=80-100%) | 5 (5=80-100%) | 5 (5=80-100%) | 5 (5=80-100%) | 5 (5=80-100%) | 5 (5=80-100%) | 5 (5=80-100%) | 5 (5=80-100%) | 5 (5=80-100%) | 5 (5=80-100%) | – | – | – | – | – | – |
| Cc1cc(-c2ccc(F)cc2)cc(C)c1C1C(=O)CC2(CCN(C(=O)C(F)F)CC2)CC1=O [Compound A60] | – | 5 (5=80-100%) | 5 (5=80-100%) | 5 (5=80-100%) | 5 (5=80-100%) | – | 5 (5=80-100%) | 5 (5=80-100%) | 5 (5=80-100%) | 5 (5=80-100%) | 5 (5=80-100%) | – | – | – | – | – | – |
| CON1CCC2(CC1)CC(=O)C(c1c(C)cc(-c3ccc(C#N)cn3)cc1C)C(=O)C2 [Compound A3] | – | 5 (5=80-100%) | 5 (5=80-100%) | 5 (5=80-100%) | 5 (5=80-100%) | 5 (5=80-100%) | 5 (5=80-100%) | 5 (5=80-100%) | 5 (5=80-100%) | 5 (5=80-100%) | 5 (5=80-100%) | – | – | – | – | – | – |
| COc1cc(-c2ccc(C#N)cn2)cc(C)c1C1C(=O)CC2(CCN(C(C)=O)CC2)CC1=O [Compound A18] | – | 5 (5=80-100%) | 5 (5=80-100%) | 5 (5=80-100%) | 5 (5=80-100%) | 5 (5=80-100%) | 4 (4=60-79%) | 5 (5=80-100%) | 5 (5=80-100%) | 5 (5=80-100%) | 5 (5=80-100%) | – | – | – | – | – | – |
| CC(=O)N1CCC2(CC1)CC(=O)C(c1c(C)cc(-n3cc(F)cn3)cc1C)C(=O)C2 [Compound A47] | – | 1 (1=0-19%) | 3 (3=40-59%) | 5 (5=80-100%) | 4 (4=60-79%) | 5 (5=80-100%) | 2 (2=20-39%) | 5 (5=80-100%) | 4 (4=60-79%) | 5 (5=80-100%) | 4 (4=60-79%) | – | – | – | – | – | – |
| Cc1cc(-c2ccc(F)cc2)cc(C)c1C1C(=O)CC2(CCN(C(=O)OC(C)(C)C)CC2)CC1=O [Compound A11] | – | 5 (5=80-100%) | 5 (5=80-100%) | 5 (5=80-100%) | 5 (5=80-100%) | 5 (5=80-100%) | 5 (5=80-100%) | 4 (4=60-79%) | 4 (4=60-79%) | 5 (5=80-100%) | 5 (5=80-100%) | – | – | – | – | – | – |
| Cc1cc(-c2ccc(F)cc2)cc(C)c1C1C(=O)CC2(CCN(C(=O)c3ccccn3)CC2)CC1=O [Compound A55] | – | 5 (5=80-100%) | 5 (5=80-100%) | 5 (5=80-100%) | 5 (5=80-100%) | – | 5 (5=80-100%) | 5 (5=80-100%) | 5 (5=80-100%) | 5 (5=80-100%) | 5 (5=80-100%) | – | – | – | – | – | – |
| CC(=O)N1CCC2(CC1)CC(=O)C(c1c(C)cc(-c3ccc(Cl)cn3)cc1C)C(=O)C2 [Compound A45] | – | 5 (5=80-100%) | 5 (5=80-100%) | 5 (5=80-100%) | 5 (5=80-100%) | 5 (5=80-100%) | 5 (5=80-100%) | 5 (5=80-100%) | 5 (5=80-100%) | 5 (5=80-100%) | 5 (5=80-100%) | – | – | – | – | – | – |
| Cc1cc(-c2ccc(F)cc2)cc(C)c1C1C(=O)CC2(CCN(C(=O)C(C)(C)C)CC2)CC1=O [Compound A61] | – | 5 (5=80-100%) | 5 (5=80-100%) | 5 (5=80-100%) | 5 (5=80-100%) | – | 5 (5=80-100%) | 4 (4=60-79%) | 2 (2=20-39%) | 5 (5=80-100%) | 5 (5=80-100%) | – | – | – | – | – | – |
| Cc1cc(-c2ncc(F)cn2)cc(C)c1C1C(=O)CC2(CCN(C(=O)CC#N)CC2)CC1=O [Compound A43] | – | 5 (5=80-100%) | 5 (5=80-100%) | 5 (5=80-100%) | 5 (5=80-100%) | 5 (5=80-100%) | 5 (5=80-100%) | 5 (5=80-100%) | 5 (5=80-100%) | 5 (5=80-100%) | 5 (5=80-100%) | – | – | – | – | – | – |
| COc1cc(-c2ccc(F)cc2)cc(C)c1C1C(=O)CC2(CCN(C(C)=O)CC2)CC1=O [Compound A21] | – | 5 (5=80-100%) | 5 (5=80-100%) | 5 (5=80-100%) | 5 (5=80-100%) | 5 (5=80-100%) | 5 (5=80-100%) | 5 (5=80-100%) | 5 (5=80-100%) | 5 (5=80-100%) | 5 (5=80-100%) | – | – | – | – | – | – |
| Cc1cc(-c2ccc(C#N)cn2)cc(C)c1C1C(=O)CC2(CCN(C(=O)C(F)F)CC2)CC1=O [Compound A29] | – | 4 (4=60-79%) | 1 (1=0-19%) | 5 (5=80-100%) | 1 (1=0-19%) | 5 (5=80-100%) | – | 5 (5=80-100%) | 5 (5=80-100%) | 5 (5=80-100%) | 5 (5=80-100%) | – | – | – | – | – | – |
| COCC(=O)N1CCC2(CC1)CC(=O)C(c1c(C)cc(-c3ccc(F)cc3)cc1C)C(=O)C2 [Compound A56] | – | 5 (5=80-100%) | 5 (5=80-100%) | 5 (5=80-100%) | 5 (5=80-100%) | – | 5 (5=80-100%) | 5 (5=80-100%) | 5 (5=80-100%) | 5 (5=80-100%) | 5 (5=80-100%) | – | – | – | – | – | – |
